Results published in US20260227397A1, “METHODS AND SYSTEMS OF PROFILING WITH BIOLOGICAL COMPUTING CELLS” (XENO CELL INNOVATIONS S.R.O., priority 2023, published 2026).

T1: alpha-factor, P01149
T1 chain: WHWLQLKPGQPMY


Legend:
[1] = test system: HaCaT (HCT, EpCAM+) cells; experiment: Cell-specific apoptosis rate in mixed HaCaT/Jurkat cell cultures (biocytometry readout); assay type: cell-based
Experimental: The presently described biocytometry was evaluated for measuring cell-specific apoptosis in mixed cell cultures. Despite the growing trend toward studying apoptosis in complex biological systems such as organoids and mixed cell cultures, conventional methods such as Caspase-based assays and MTT tests still yield limited sensitivity and quantify only aggregate apoptosis levels. To assess cell-specific apoptosis, mixed cultures of HaCaT (HCT, EpCAM+) and Jurkat (JUR, EpCAM−) cells at varied ratios (1:0 to 1:8) were utilized. Cells were cultured at a density of 40,000 cells/well in RPMI medium supplemented with 10% FBS and either subjected to 1 mM DTT treatment or left untreated. Following a 2.5-hour incubation at 37° C. in a 5% CO2 atmosphere, both total and apoptotic HaCaT cell counts were established using BIOS(EpCAM) and BIOS (EpCAM+PS), adhering to the biocytometry protocol. A noticeable reduction in total EpCAM+ cell count was evident in induced cell cultures, alongside an increase in the number of apoptotic EpCAM+ cells, aligning with the anticipated apoptotic changes (FIG. 12A). Apoptotic rates were calculated by normalizing BIOS(EpCAM+PS) counts to total cell counts from BIOS(EpCAM). […]

alpha-factor, P01149 = target: T1, alpha-factor, P01149

Row | Molecule | increase in apoptotic rates among EpCAM+ cells ([1]; 1 mM DTT vs untreated controls) [fold] | apoptotic rate among EpCAM+ cells ([1]; 1 mM DTT, 2.5-hour incubation at 37° C., 1.7% baseline in untreated controls) [%] | degradation of alpha-factor; activation threshold of the biosensors (alpha-factor, P01149)
1 | O[C@@H](CS)[C@@H](O)CS [DTT] | 7.2 | 12.2 | 
2 | BAR1 protease of BAR1 computing units (protein) LTNDGTGHLEFLLQHEEEMYYATTLDIGTPSQSLTVLFDTGSADFWVMDSSNPFCLPNSNTSSYSNATYNGEEVKPSIDCRSMSTYNEHRSSTYQYLENGRFYITYADGTFADGSWGTETVSINGIDIPNIQFGVAKYATTPVSGVLGIGFPRRESVKGYEGAPNEYYPNFPQILKSEKIIDVVAYSLFLNSPDSGTGSIVFGAIDESKFSGDLFTFPMVNEYPTIVDAPATLAMTIQGLGAQNKSSCEHETFTTTKYPVLLDSGTSLLNAPKVIADKMASFVNASYSEEEGIYILDCPVSVGDVEYNFDFGDLQISVPLSSLILSPETEGSYCGFAVQPTNDSMVLGDVFLSSAYVVFDLDNYKISLAQANWNASEVSKKLVNIQTDGSISGAKIATAEPWSTNEPFTVTSDIYSSTGCKSRPFLQSSTASSLIAETNVQSRNCSTKMPGTRSTTVLSKPTQNSAMHQSTGAVTQTSNETKLELSSTMANSGSVSLPTSNSIDKEFEHSKSQTTSDPSVAEHSTFNQTFVHETKYRPTHKTVITETVTKYSTVLINVCKPTY |  |  | effectively degraded alpha-factor, raising the activation threshold of the biosensors
